Experimental data as given in US11407811B2, “Fusion protein, preparation method therefor and use thereof” (JIANGSU RONGTAI BIOTECH CO., LTD., priority 2017, dated 2022).

Experiments:
[1] = tested on: human umbilical vein endothelial cells (HUVEC); experiment: Three-dimensional transwell assay, migration of HUVEC; type: cell-based; details: dose 8.0 · 10^−6 μg/mL
Procedure: Human umbilical vein endothelial cells (HUVECs) were cultured with endothelial cell culture fluid containing 5% fetal bovine serum and 1×ECGS in a 5% CO2 incubator at 37° C., to a confluence of 90% or more, and then inhibitory effects of fusion protein I, protein II, protein III, protein IV, and protein V on migration of endothelial cells were detected by transwell assay, in which only endothelial cells HUVEC of passage 2 to 8 were used, and the specific operation was as follows.
(1) 10 mg/mL Matrigel was diluted with a DMEM medium at a ratio of 1:4, coated on a transwell chamber membrane, and air-dried at room temperature.
(2) HUVEC cells cultured to logarithmic phase were digested with 0.2% EDTA, collected, washed twice with PBS, followed by resuspended in an endothelial cell culture liquid containing 0.1% BSA, counted under a microscope, and the cell concentration was adjusted to 1×10^5 cells/mL;
(3) Test solutions for each group were formulated and diluted to 100 μL with a cell culture liquid containing 0.1% BSA;
Groups were divided as follows:
Blank control group: a cell culture liquid containing no drug;
Endostar group: 5 mg/mL Endostar solution diluted to a predetermined concentration with a cell culture liquid containing no drug; […]
(4) The cells were inoculated into a transwell chamber at 100 μL per well, and test solutions for each group were added to the chamber. To a 24-well plate, 0.6 mL of endothelial cell culture liquid containing 5% fetal bovine serum and 1×ECGS was added to stimulate cell migration, and incubated at 5% CO2 for 24 h at 37° C.
(5) The culture liquid in the well was discarded. The cells were fixed with 90% alcohol at room temperature for 30 min, stained with 0.1% crystal violet for 10 min at room temperature, and rinsed with water. Un-migrated cells in the upper layer were gently wiped off by a cotton swab. The observation was carried out under microscope and four fields of view were selected for taking photos and counting. The migration inhibition (MI) was calculated according to the formula: […]
where Ntest is the migration cell number in the test group, and Ncontrol is the migration cell number in the blank control group.
The test was repeated 3 times independently. The results obtained from the test were calculated as mean±SD, and statistical t-test was performed. P<0.05 was considered as a significant difference, and P<0.01 was considered as an extremely significant difference.

[2] = tested on: melanoma cell line B16F10; experiment: MTT assay, proliferation of melanoma cell B16F10; type: cell-based; details: dose 5 μg/mL
Procedure: (§1) The MTT assay was used to detect the inhibitory effect of the integrin blocker fusion protein obtained in Example 1 on the proliferation of various tumor cells, including melanoma cell B16F10, gastric cancer cell MGC-803, lung cancer cell A549, liver cancer cell Hep-G2, breast cancer cell MDA-MB-231, colon cancer cell HCT-116, human glioma U87, and cervical cancer cell Hela.
(§2) The tumor cells were cultured in a 5% CO2 incubator at 37° C. to a density of 90% or more, and collected by trypsinization. The cells were resuspended in the culture liquid and counted under a microscope. The cell concentration was adjusted to 3.0×10^4 cells/mL. The cell suspension was inoculated into a 96-well plate at 100 μL per well and cultured overnight in a 5% CO2 incubator at 37° C. […] After the cells were fully adhered, each dilution was added to a 96-well plate at 100 μL per well, respectively. […] 20 μL of 5 mg/mL MTT was added to each well of a 96-well plate, and incubation was continued for 4 hours. The medium was aspirated and 100 μL of DMSO per well were added to dissolve. The absorbance was measured at 570 nm with a microplate reader with a reference wavelength of 630 nm, and the proliferation inhibition (PI) was calculated. The formula is as follows: […]
(§3) where Ntest is the OD value of the test group and Ncontrol is the OD value of the blank control group.
(§4) The test was repeated 5 times independently. The results obtained from the test were calculated as mean±SD, and statistical t-test was performed. P<0.05 was considered as a significant difference, and P<0.01 was considered as an extremely significant difference.

[3] = tested on: gastric cancer cell MGC-803; experiment: MTT assay, proliferation of gastric cancer cell MGC-803; type: cell-based; details: dose 5 μg/mL
Procedure: as §1, §2, §3, §4

lung cancer cell A549 = experiment: MTT assay, proliferation of lung cancer cell A549; type: cell-based; details: dose 5 μg/mL
Procedure: as §1, §2, §3, §4

liver cancer cell Hep-G2 = experiment: MTT assay, proliferation of liver cancer cell Hep-G2; type: cell-based; details: dose 5 μg/mL
Procedure: as §1, §2, §3, §4

[4] = tested on: breast cancer cell MDA-MB-231; experiment: MTT assay, proliferation of breast cancer cell MDA-MB-231; type: cell-based; details: dose 5 μg/mL
Procedure: as §1, §2, §3, §4

[5] = tested on: colon cancer cells HCT-116; experiment: MTT assay, proliferation of colon cancer cell HCT-116; type: cell-based; details: dose 5 μg/mL
Procedure: as §1, §2, §3, §4

human glioma U87 = experiment: MTT assay, proliferation of human glioma U87; type: cell-based; details: dose 5 μg/mL
Procedure: as §1, §2, §3, §4

[6] = tested on: cervical cancer cell Hela; experiment: MTT assay, proliferation of cervical cancer cell Hela; type: cell-based; details: dose 5 μg/mL
Procedure: as §1, §2, §3, §4

[7] = tested on: human retinal vascular endothelial cell (HRCEC); experiment: MTT assay, proliferation of human retinal vascular endothelial cell (HRCEC); type: cell-based; details: 5 μg/mL (positive control), 48 hours
Procedure: The activity of the integrin blocker polypeptide to inhibit proliferation of human retinal vascular endothelial cells was examined by MTT assay. HRCEC cells were cultured in a 5% CO2 incubator at 37° C. to a density of 90% or more, and then collected by trypsinization. The cells were resuspended in the culture liquid and counted under a microscope. The cell concentration was adjusted to 3.0×10^4 cells/mL. The cell suspension was inoculated into a 96-well plate at 100 μL per well and cultured in a 5% CO2 incubator at 37° C. overnight. […] After the cells were fully adhered, each dilution was added to a 96-well plate at 100 μL per well, respectively. […] 20 μL of 5 mg/mL MTT was added to each well of a 96-well plate, and incubation was continued for 4 hours. The medium was aspirated and 100 μL of DMSO was added per well for dissolution. The absorbance was measured at 570 nm with a microplate reader with a reference wavelength of 630 nm, and the proliferation inhibition (PI) was calculated. The formula was as follows: […]
as §3
The test was repeated 5 times independently. The results obtained from the test were calculated as mean±SD, and statistical t-test was performed. P<0.05 was considered as significant difference, and P<0.01 was considered as extremely significant difference.

[8] = tested on: xylene-induced ear swelling in mice; experiment: Xylene-induced ear swelling in mice; type: in vivo; details: 200 mg/kg (positive control)
Procedure: 80 Kunming mice were divided into 8 groups with 10 mice for each group and numbered. A physiological saline group was used as a blank control group, an aspirin group (200 mg/kg) was used as a positive control group, and fusion protein I, protein II, protein III, protein IV and protein V at high, medium and low doses (128, 32, 8 mg/kg) were used as experimental groups. Mice were administered once by injection, while EDSM needed to be administered twice a day for 5 consecutive days. The blank control group was given an equal volume of physiological saline. After the fifth day, 0.05 mL of xylene was applied to both sides of the right ears of the mice to induce inflammation, and the left ears were not applied and were normal ears. After 2 h, the mice were sacrificed by dislocation, and the ears were cut along the auricle. Ear pieces were taken with a puncher and weighed, and the swelling degree and swelling rate were calculated. Swelling degree=right ear piece weight-left ear piece weight, swelling rate=(swelling degree/left ear piece weight)×100%.

[9] = tested on: adjuvant arthritis in rat; experiment: Chronic inflammation of adjuvant arthritis in rat; type: in vivo; design: key to Clinical score Whole body: sum of hind/fore foot, ear, nose, tail scores; full score 8
Procedure: 80 SPF SD rats were randomly divided into 8 groups. Rats in each group were lightly anesthetized with ether. Then, 0.1 mL of complete Freund's adjuvant containing inactivated Mycobacterium tuberculosis was injected subcutaneously into the left hind foot of the rats. Primary arthritis occurred in the left hind foot of the rat, and at about 13 days post-modeling, secondary arthritis occurred in the right hind foot. A blank control group was injected with an equal volume of physiological saline. The drug was administered 13 days after modeling. A methotrexate group was administered by injection every 5 days for 15 days, 4 times in total; the fusion protein I, protein II, protein III, protein IV, and protein V at high, medium and low doses (128 mg/kg, 32 mg/kg, 8 mg/kg) were administered by injection every 5 days for 15 days.
Using a foot volume measuring method, a marker was made with a fat-soluble marker at the left and right posterior ankle joint of each rat, and the left and right hind feet of the animal were respectively immersed in the volume measuring device. The immersion depth was bounded by the marker, and the reading value at the scale pipette of the device was the initial volume of the animal's left and right hind feet.
The day of modeling was considered as the 0th day and recorded as d0. The volume of the left hind foot (modeling foot) was measured from the first day d1 after modeling every 2 days. When the swelling occurred (i.e., secondary arthritis occurred) at the contralateral non-inflammatory foot (right hind foot), the administration was started. The volume of the left and right hind feet was measured every 2 days, and the degree of primary and secondary toe swelling was determined, which was calculated as follows:
Primary toe swelling (mL)=left hind foot volume on the day of measurement-initial volume of left hind foot
Secondary toe swelling (mL)=right hind foot volume on the day of measurement-initial volume of right hind foot 2. Clinical score
Systemic score: the systemic score was taken every 2 days after the onset of secondary inflammation.
Hind foot: no swelling=0 score, one hind foot swelling=1 score, two hind feet swelling=2 scores;
Forefoot: no swelling=0 score, one forefoot swelling=1 score, two forefeet swelling=2 scores;
Ear: no redness and nodules=0 score, redness or nodules in one ear=1 score, redness and nodules in both ears=2 scores;
Nose: no swelling=0 score, obvious swelling=1 score;
Tail: no nodules=0 score, with nodules=1 score; full score was 8 scores.
Arthritis index score: the arthritis index score was performed every 2 days after the onset of secondary inflammation.
The initial body weight of each group of rats was weighed before modeling. The body weight was measured every 2 days from d1 after modeling, from which the initial body weight was subtracted to obtain the weight gain of each group of rats.

CCN(CC)CCNC(=O)c1c(C)[nH]c(/C=C2\C(=O)Nc3ccc(F)cc32)c1C [Sunitinib, reference compound]
MI (%) [1]: 82.13% | Migration cell number [1]: 449.0 ± 153.86

CC(=O)O[C@H]1C(=O)[C@@]2(C)[C@H]([C@H](OC(=O)c3ccccc3)[C@]3(O)C[C@H](OC(=O)[C@H](O)[C@@H](NC(=O)c4ccccc4)c4ccccc4)C(C)=C1C3(C)C)[C@]1(OC(C)=O)CO[C@@H]1C[C@@H]2O [Taxol, reference compound]
A570 nm/A630 nm [2]: 0.5996 ± 0.0139 | PI (%) [2]: 52.15% | A570 nm/A630 nm [3]: 0.6011 ± 0.0148 | PI (%) [3]: 50.81% | A570 nm/A630 nm (lung cancer cell A549): 0.4269 | PI (%) (lung cancer cell A549): 55.93% | A570 nm/A630 nm (liver cancer cell Hep-G2): 0.3258 | PI (%) (liver cancer cell Hep-G2): 52.42% | A570 nm/A630 nm [4]: 0.4156 ± 0.0287 | A570 nm/A630 nm [5]: 0.4103 ± 0.0287 | PI (%) [5]: 53.39% | A570 nm/A630 nm (human glioma U87): 0.2177 ± 0.0277 | PI (%) (human glioma U87): 68.90% | A570 nm/A630 nm [6]: 0.2114 ± 0.0275 | PI (%) [6]: 73.55% | A570 nm/A630 nm [7]: 0.2387 ± 0.0257 | PI [7]: 82.28%

CC(=O)Oc1ccccc1C(=O)O [aspirin, reference compound]
Swelling degree ([8]; 2 h after xylene, mice): 3.12 ± 0.34 mg | PI ([8]; ear swelling vs control): 53.08%

CN(Cc1cnc2nc(N)nc(N)c2n1)c1ccc(C(=O)N[C@@H](CCC(=O)O)C(=O)O)cc1 [methotrexate, reference compound]
Weight gain ([9]; 1 mg/kg (positive drug)): 47.32 ± 17.20 g | Clinical score Whole body ([9]; 1 mg/kg (positive drug), full score 8): 1.31 ± 0.17 | Foot swelling degree Left ([9]; 1 mg/kg (positive drug), left hind foot (primary inflammation)): 1.19 ± 0.20 mL | Clinical score Arthritis index ([9]; 1 mg/kg (positive drug), maximum score 16): 2.00 ± 0.54 | Foot swelling degree Right ([9]; 1 mg/kg (positive drug), right foot (secondary inflammation)): 1.22 ± 0.13 mL | therapeutic effect on primary arthritis (primary toe swelling degree) ([9]; methotrexate group, injection every 5 days for 15 days): the best effect
